{"source": "patent US9700578B2", "about": "“Use of nitrite salts for the treatment of cardiovascular conditions” (The United States of America as represented by the …, priority 2003, dated 2017)", "key": {"[1]": {"tested_on": "hypoxic-induced pulmonary hypertension", "settings": "for decrease in pulmonary artery pressure from hypoxic level: FiO2 0.12, nebulized 270 μmol/minute for 20 minutes, n=7"}, "[2]": {"assay": "Sodium nitrite infusion into the brachial artery, forearm blood flow by venous-occlusion plethysmography", "settings": "human, in vivo", "source_text": "(§1) The protocol was approved by the Institutional Review Board of the National Heart, Lung and Blood Institute, and informed consent was obtained from all volunteer subjects. […] An additional 10 subjects returned three-six months later for a second series of experiments with low dose nitrite infusion. […] No volunteer subject was allowed to take any medication (oral contraceptive agents allowed), vitamin supplements, herbal preparations, nutriceuticals or other “alternative therapies” for at least one month prior to study and were not be allowed to take aspirin for one week prior to study.\n(§2) Brachial artery and antecubital vein catheters were placed into the arm, with the intraarterial catheter connected to a pressure transducer for blood pressure measurements and an infusion pump delivering normal saline at 1 mL/min. After 20 minutes of rest, baseline arterial and venous blood samples were obtained and forearm blood flow measurements were made by strain gauge venous-occlusion plethysmography, as previously reported (Panza et al., Circulation, 87, 1468-74, 1993). A series of 7 blood flow measurements were averaged for each blood flow determination. A series of measurements termed Parts I and II were performed in randomized order to minimize a time effect on the forearm blood flow response during nitrite infusion.\n(§3) Part I: Following 20 minutes of 0.9% NaCl (saline) solution infusion at 1 mL/min into the brachial artery, arterial and venous blood samples were obtained for the assays described below and forearm blood flow measured. Exercise was performed by repetitive hand-grip at one-third of the predetermined maximum grip strength using a hand-grip dynamometer (Technical Products Co.) (Gladwin et al., Proc Natl Acad Sci USA, 97, 9943-8, 2000; Gladwin et al., Proc Natl Acad Sci USA, 97, 11482-11487, 2000; Cannon et al., J Clin Invest, 108, 279-87, 2001). Each contraction lasted for 10 seconds followed by relaxation for 5 seconds. Following 5 minutes of exercise, forearm blood flow measurements were obtained during relaxation phases of exercise, and arterial and venous samples collected. Following a 20-minute rest period with continued infusion of saline into the brachial artery, repeated baseline blood samples and forearm blood flow measurements were obtained. L-NMMA was then infused at a rate of 1 mL/min (8 μmol/min) into the brachial artery. Following 5 minutes of L-NMMA infusion, forearm blood flow was measured, and arterial and venous blood samples obtained. Forearm exercise was then initiated in that arm during continued L-NMMA infusion. Forearm blood flow was measured and blood samples obtained after 5 minutes of exercise during continued L-NMMA infusion (FIG. 1).\n(§4) Part II: After a 30 minute rest period with continued infusion of saline, baseline measurements were obtained, the saline infusion was then stopped, and infusion of nitrite (NaNO2 36 μmol/ml in 0.9% saline) at 1 ml/min was started. […] For the final 9 subjects studied, 0.01-0.03 mM sodium bicarbonate was added to the normal saline, so as to titrate pH to 7.0-7.4. The nitrite solution was light protected and nitrite levels and free NO gas in solution measured by reductive chemiluminescence after all experiments (Gladwin et al., J Biol Chem, 21, 21, 2002)."}, "forearm circulation": {"tested_on": "forearm circulation", "assay": "Sodium nitrite infusion into the brachial artery, forearm blood flow by venous-occlusion plethysmography", "source_text": "as §1, §2, §3, §4"}, "aortic ring preparations": {"tested_on": "aortic ring preparations", "settings": "cited from earlier work"}, "deoxyhemoglobin": {"target": "deoxyhemoglobin (Homo sapiens, UniProt P68871+P69905)", "settings": "25° C., pH 7.0; cited from earlier work"}, "[3]": {"tested_on": "hypoxic-induced pulmonary hypertension", "assay": "Comparison of inhaled nitrite and NO gas during hypoxic-induced pulmonary vasoconstriction: efficacy and duration", "type": "in vivo, newborn lambs", "settings": "for reduction (correction) of hypoxic-induced pulmonary hypertension: hypoxia, NO gas 20 ppm or nitrite aerosol for 20 minutes", "source_text": "NO gas was introduced into the inspiratory limb of the breathing circuit. The inspired concentration of NO was continuously measured by chemiluminescence (CLD 700 AL, Eco Physics Inc, Ann Arbor, Mich.) in the inspiratory limb of the ventilator loop.\nefficacy and duration of effect. This protocol was designed to compare the efficacy of nitrite with the clinical standard, 20 ppm inhaled NO gas. […] A second purpose was to determine the duration of effect of a short nitrite nebulization versus NO gas inhalation on hemodynamic and physiological measurements during prolonged hypoxic-induced pulmonary vasoconstriction. After baseline measurements were performed, the lambs were made hypoxic as described above for 35 minutes. Ten minutes after initiation of hypoxia, a 20-minute period of NO gas inhalation was initiated (20 ppm), with continuation of hypoxia for 5 minutes after cessation of NO gas delivery. Lambs were then allowed to recover for one hour. Again, after baseline measurements were made, a second 90-minute period of hypoxia was initiated."}, "hemoglobin": {"target": "hemoglobin (Homo sapiens, UniProt P68871+P69905)"}, "[4]": {"settings": "48 nmoles of nitrite, n=3; before 594±83"}, "[5]": {"settings": "200 μM regional concentration, transit time less than 10 seconds"}}, "note": "“And” between values parts separate entries of the source, which are not always exact repeats. Equal entries are not always repeated. Where two headings read alike, the source gives them in different places.", "data": [{"smiles": "O=NO", "note": "[sodium nitrite]", "values": [{"measurement": "decrease in pulmonary artery pressure from hypoxic level", "setting": "[1]", "result": "~60", "unit": "%"}, {"measurement": "decrease in pulmonary artery pressure from hypoxic level", "setting": "[1]; listed as nitrite", "result": "~60% and 63+/−3%"}, {"measurement": "cardiac output, arterial oxyhemoglobin saturation and methemoglobin levels", "setting": "[1]; versus preceding ten minutes of hypoxia", "result": "did not change measurably"}, {"measurement": "concentration at 5 min", "setting": "[2]; both, 36 μmol/min, nitrite level in the ipsilateral antecubital vein (regional forearm nitrite concentration), 36 μmol/min into brachial artery, 5 min, 18 healthy subjects", "result": "~222000", "unit": "nM"}, {"measurement": "concentration at 5 min", "setting": "[2]; 0.36 μmol/min, mean venous nitrite level after low-dose infusion, at rest, low dose, five-minute infusion, baseline 176±17", "result": "2560 ± 462", "unit": "nM"}, {"measurement": "concentration at 5 min", "setting": "[2]; 360 nmoles per minute, forearm nitrite concentration, low dose, at rest, dose reduced 2-logs (360 nmoles per minute)", "result": "~2000", "unit": "nM"}, {"measurement": "increase in blood flow, low dose", "setting": "forearm circulation; 360 nmoles per minute", "result": "about 22%"}, {"measurement": "forearm blood flow after low-dose nitrite infusion", "setting": "forearm circulation; 400 nmol/mL at 1 mL/min for five minutes, 10 subjects, baseline 3.49±0.24", "result": "4.51±0.33", "unit": "ml/min per 100 mL tissue"}, {"measurement": "systemic level of nitrite (contralateral arm)", "setting": "forearm circulation; 36 μmol/min into brachial artery", "result": 16, "unit": "µM"}, {"measurement": "decrease of mean blood pressure", "setting": "forearm circulation; 36 μmol/min into brachial artery, systemic nitrite 16 μM", "result": "approximately 7 mm Hg"}, {"measurement": "venous hemoglobin oxygen saturation, pO2 and pH versus pre-infusion values", "setting": "forearm circulation; 36 μmol/min, 5 min, at rest", "result": "significantly increased"}, {"measurement": "forearm nitrite concentration, low dose, at rest", "setting": "forearm circulation; dose reduced 2-logs (360 nmoles per minute)", "result": 2, "unit": "µM"}, {"measurement": "forearm nitrite concentration, low dose, during exercise", "setting": "forearm circulation; dose reduced 2-logs, exercise", "result": 0.9, "unit": "µM"}, {"measurement": "venous nitrite level after low-dose infusion, during exercise", "setting": "forearm circulation; low dose, exercise", "result": "909 ± 113", "unit": "nM"}, {"measurement": "forearm blood flow 30 minutes after cessation of nitrite infusion", "setting": "forearm circulation; saline for 30 min after infusion, pre-nitrite value 3.94±0.38", "result": "4.79±0.37", "unit": "mL/min per 100 mL tissue"}, {"measurement": "systemic blood pressure 30 minutes after cessation of nitrite infusion", "setting": "forearm circulation; saline for 30 min after infusion, pre-nitrite value 89.2±3.5", "result": "82.1±3.7", "unit": "mm Hg"}, {"measurement": "nitrite concentration that stimulated vasodilation of aortic ring preparations", "setting": "aortic ring preparations; Furchgott et al. 1953", "result": 100, "unit": "µM"}, {"measurement": "levels of nitrite shown to vasodilate in vitro", "setting": "aortic ring preparations; literature", "result": "> 100,000 nM"}, {"measurement": "rate constant of nitrite reduction to NO and methemoglobin", "setting": "deoxyhemoglobin", "result": 2.9, "unit": "M⁻¹ s⁻¹"}, {"measurement": "methemoglobin concentration after nitrite nebulization", "setting": "[3]; baseline 2.1±0.1", "result": "2.8±0.2", "unit": "%"}, {"measurement": "duration of sustained vasodilation after discontinuation of inhalation", "setting": "[3]; hypoxia continued 60 minutes after nebulization", "result": "more than 60 minutes"}, {"measurement": "reduction (correction) of hypoxic-induced pulmonary hypertension", "setting": "[3]", "result": "about 60%"}, {"measurement": "reduction (correction) of hypoxic-induced pulmonary hypertension", "setting": "[3]; listed as nitrite", "result": "60-70%"}, {"measurement": "iron-nitrosylated-hemoglobin in the ipsilateral antecubital vein during nitrite infusion", "setting": "hemoglobin; 36 μmol/min, at rest, baseline 55.7±11.4", "result": "693.4 ± 216.9", "unit": "nM"}, {"measurement": "SNO-Hb produced across the forearm during exercise", "setting": "hemoglobin; [5]", "result": "~200", "unit": "nM"}, {"measurement": "iron-nitrosyl-hemoglobin produced across the forearm during exercise", "setting": "hemoglobin; [5]", "result": "approximately 750 nM"}, {"measurement": "blood nitrite level after treatment", "setting": "[4]", "result": "727 ± 40", "unit": "nM"}]}]}
